Measurements taken from US8632813B2, “Prostaglandin compositions and methods for the treatment of vasospasm” (Nexmed (Holdings), Inc., priority 2003, dated 2014).

Experiments:
[1] = tested on: vasospasm, central artery and vein of the ear; test: Pilot study of 0.4% PGE1 topical composition on adrenaline-induced ear vasospasm (Example 5, FIG. 1-2); assay type: in vivo, New Zealand rabbit; details: 1 mg of PGE1 dissolved in 75% aqueous ethanol on skin of right ear
Source text: The objects of these pilot studies were designed to explore the efficacy of a specially formulated 0.4 wt % PGE1 topical composition for treating vasospasm and skin disorders that result from insufficient local blood circulation. Twenty four adult New Zealand rabbit, 3-4 kg, were divided into three groups: 12 rabbits were assigned into a Test Study Group; 6 rabbits were assigned into a PGE1 Control Group and 6 rabbits were assigned into an Alcohol Control Group. One rabbit of each Group was selected to enter the study at the same time for each of the first six studies.
The rabbit's right ear was selected to be the test application site, while its left ear was observed as a control. An adrenaline solution (0.2 ml of a 0.1% (1:1000) solution) was injected into the area adjacent to both the central artery and vein near the bottom of both ears. Classic vasospasm appeared five minutes later on both ears. One of three test substances, 125 mg of a 0.4% PGE1 topical composition containing 1.8% DDAIP HCl was applied to a 2 cm×2 cm area of skin adjacent to the central artery and vein of the right ear.
Vasospasm was induced in the same way in both ears of the rabbits of the PGE1 Control Group and the Alcohol Control Group. Similarly, 1 mg of PGE1 dissolved in 75% aqueous ethanol, or the 75% aqueous ethanol vehicle alone were applied to the right ears of the rabbits of the PGE1 Control Group and the Alcohol Control Group respectively. The time course of changes in blood vessel diameter was observed.

[2] = tested on: vasospasm induced by adrenaline hydrochloride, femoral artery; test: Ultrasonography of blood flow volume in surgically exposed femoral artery with adrenaline-induced vasospasm (Example 4); assay type: in vivo, New Zealand Rabbits; details: four drops of papaverine (30 mg/ml) on exposed femoral artery; for The Average Time Required To Return To The Initial Blood Flow Volume: 120 minute test
Method: Rabbits were obtained and anesthetized as described in Example 2, above. A total of 70 rabbits were randomly assigned into 7 groups with 10 rabbits per group. Blood flow velocity and vascular cross section area were measured and analyzed using a Toshiba Multifunction Ultrasonography 6000 system. A portion of femoral artery about 2 cm long was exposed through a 3 cm incision. […] The entire test was performed under a constant room temperature of 20 degrees Celsius. About ten minutes after the application of adrenaline hydrochloride, the operating field was irrigated with sterile saline topically and dried with sterile pad. […] The incision was closed after the application of the topical composition. The ultrasonic probe was put at a fixed location 1 cm from the incision. […] In general, blood flow volume=blood flow velocity×vascular cross section The data were expressed as average±SD; t-test was used for statistical analysis. The averaged data are reported in Table 9, below, as instantaneous blood flow volume±standard deviation (SD), N=10, and shown graphically in FIG. 6.

SMILES	changes of the vascular bed of the right ear [1]	duration of the dilation effect [1]	time after application at which the vasospasm was alleviated slightly [1]	time until vessels of the right ear were dilated [1]	The accumulated blood flow volume from 10 minutes after vasospasm to 120 minutes after drug administration [2]	instantaneous blood flow volume ([2]; 5 min after Drug)	instantaneous blood flow volume ([2]; 5 min after Vasospasm (before drug))	instantaneous blood flow volume ([2]; 10 min after Drug)	instantaneous blood flow volume ([2]; 10 min after Vasospasm (before drug))	instantaneous blood flow volume ([2]; 15 min after Drug)	instantaneous blood flow volume ([2]; 30 min after Drug)	instantaneous blood flow volume ([2]; 60 min after Drug)	instantaneous blood flow volume ([2]; 90 min after Drug)	instantaneous blood flow volume ([2]; 120 min after Drug)	The Average Time Required To Return To The Initial Blood Flow Volume [2]	The Average Time Required To Return To The Initial Blood Flow Volume ([2]; listed as papaverine)	instantaneous blood flow volume ([2]; Normal Condition (before drug))	The accumulated blood flow volume from 10 minutes after vasospasm to 120 minutes after drug administration ([2]; listed as papaverine)
CCCCC[C@H](O)/C=C/[C@H]1[C@H](O)CC(=O)[C@@H]1CCCCCCC(=O)O [PGE1 dissolved in 75% aqueous ethanol, Prostaglandin E1]	No significant remaining changes were observed	60 min	20 min	30 min														
COc1ccc(Cc2nccc3cc(OC)c(OC)cc23)cc1OC [Papaverine, papaverine]					2341 ± 94.87 cm^3	319 ± 13.27 mm^3/s	107 ± 4.11 mm^3/s	358 ± 13.95 mm^3/s	86 ± 4.76 mm^3/s	402 ± 18.44 mm^3/s	435 ± 17.76 mm^3/s	296 ± 12.58 mm^3/s	287 ± 11.96 mm^3/s	274 ± 10.88 mm^3/s	5 min	produced recovery of blood flow volume	325 ± 9.80 mm^3/s	a slightly greater effect that was comparable to that produced by composition comprising 80 μg PGE1
